Experimental data as given in patent publication US20240010606A1, “FUMARATE DERIVATIVES AND THEIR MEDICAL USE” (Sitryx Therapeutics Limited, priority 2020, published 2024).

Columns and labels:
NRF2 = NRF2 activation assay (DiscoverX PathHunter NRF2 translocation kit, U2OS cells); type: cell-based
In short: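 PathHunter U2OS cells, grown 24 h at 37 °C/5% CO2, treated 6 h with compound; NRF2 nuclear translocation read as enzyme-fragment-complementation chemiluminescence. Activation normalised to dimethyl fumarate high and untreated low controls; EC50 from concentration-response curve.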

hepatocytes [1] = experiment: Hepatocyte stability assay, mouse; type: in vitro ADME; conditions: 10 μM compound
In short: (§1)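 Cryopreserved hepatocytes (viability >70%) at 0.5×10^6 cells/mL in Leibovitz buffer, preincubated 10 min at 37 °C, then compound at 10 μM (0.1% DMSO) in duplicate; buffer-only incubations as control. Samples at 0-60 min quenched in acetonitrile, analysed by LC-MS/MS; half-life and CLint (μL min^−1 10^−6 cells) from ln % remaining versus time.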

[2] = Hepatocyte stability assay, mouse; type: in vitro ADME; conditions: mouse, cryopreserved hepatocytes, 10 μM compound
In short: as §1

hepatocytes [3] = experiment: Hepatocyte stability assay, human; type: in vitro ADME; conditions: 10 μM compound
In short: as §1

[4] = Hepatocyte stability assay, human; type: in vitro ADME; conditions: cryopreserved hepatocytes, 10 μM compound
In short: as §1

IL-6 = experiment: THP-1 AlphaLISA IL-6 cytokine assay; type: cell-based; conditions: Homo sapiens
Method: Biological Example 1—THP-1 AlphaLISA IL-1β and IL-6 Cytokine Assay Measuring Inhibitory Effects on IL-1, and IL-6 Cytokine Output from THP-1s The cytokine inhibition profiles of compounds of formula (I) were determined in a differentiated THP-1 cell assay. All assays were performed in RPMI-1640 growth medium (Gibco), supplemented with 10% fetal bovine serum (FBS; Gibco), 1% penicillin-streptomycin and 1% sodium pyruvate unless specified otherwise. The IL-1β and IL-6 cytokine inhibition assays were each run in a background of differentiated THP-1 cells as described below. All reagents described were from Sigma-Aldrich unless specified otherwise. Compounds were prepared as 10 mM DMSO stocks. THP-1 cells were expanded as a suspension up to 80% confluence in appropriate growth medium. Cells were harvested, suspended, and treated with an appropriate concentration of phorbol 12-myristate 13-acetate (PMA) over a 72 hr period (37° C./5% CO2). Following 72 hrs of THP-1 cell incubation, cellular medium was removed and replaced with fresh growth media containing 1% of FBS. Working concentrations of compounds were prepared separately in 10% FBS treated growth medium and pre-incubated with the cells for 30 minutes (37° C./5% CO2). Following the 30 minute compound pre-incubation, THP-1s were treated with an appropriate concentration of LPS and the THP-1s were subsequently incubated for a 24 hr period (37° C./5% CO2). An appropriate final concentration of Nigericin was then dispensed into the THP-1 plates and incubated for 1 hour (37° C./5% CO2) before THP-1 supernatants were harvested and collected in separate polypropylene 96-well holding plates. Reagents from each of the IL-1β and IL-6 commercial kits (Perkin Elmer) were prepared and run according to the manufacturer's instructions. Subsequently, fluorescence signal detection in a microplate reader was measured (EnVision® Multilabel Reader, Perkin Elmer). Percentage inhibition was calculated per cytokine by normalizing the sample data to the high and low controls used within each plate (+/−LPS respectively). Percentage inhibition was then plotted against compound concentration and the 50% inhibitory concentration (IC50) was determined from the resultant concentration-response curve.

IL-1β = experiment: THP-1 AlphaLISA IL-1β cytokine assay; type: cell-based; conditions: Homo sapiens, differentiated THP-1 cells
In short: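 THP-1 cells differentiated 72 h with PMA, pre-incubated 30 min with compounds, stimulated 24 h with LPS, then 1 h with nigericin, all at 37 °C. Supernatant cytokine measured by AlphaLISA; % inhibition normalised to ±LPS controls and IC50 taken from concentration-response curves.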

[5] = +GSH, normalised to dimethyl fumarate high control, Table 3
[6] = −GSH, normalised to dimethyl fumarate high control, Table 3
[7] = THP-1, differentiated THP-1 cells, LPS then Nigericin, Table 1
[8] = +GSH, Table 4, compounds of formula (II)
[9] = −GSH, Table 4, compounds of formula (II)
[10] = Table 2, compounds of formula (II)
[11] = THP-1, differentiated THP-1 cells, Table 2, compounds of formula (II)

| EC50 (NRF2; +GSH, Table 3) | EC50 (NRF2; −GSH, Table 3) | CIint (hepatocytes [1]; Table 5) | half-life at 10 μM ([2]; Table 5, read-out: T½) | CIint (hepatocytes [3]; Table 5) | half-life at 10 μM ([4]; Table 5, read-out: T½) | IC50 (IL-6; [7]) | IC50 (IL-1β; LPS then Nigericin, Table 1) | Compound | NRF2 activation Emax (NRF2; [5]) | NRF2 activation Emax (NRF2; [6]) | EC50 (NRF2; [8]) | NRF2 activation Emax (NRF2; [8]) | EC50 (NRF2; [9]) | NRF2 activation Emax (NRF2; [9]) | CIint (hepatocytes [1]; Table 6) | half-life at 10 μM ([2]; Table 6, read-out: T½) | CIint (hepatocytes [3]; Table 6) | half-life at 10 μM ([4]; Table 6, read-out: T½) | IC50 (IL-1β; [10]) | IC50 (IL-6; [11]) | other results |
| --- | --- | --- | --- | --- | --- | --- | --- | --- | --- | --- | --- | --- | --- | --- | --- | --- | --- | --- | --- | --- | --- |
| 6 to 20 µM | < 2 µM | + (+ means >277) | < 5 min | ++++ (++++ means <50) | 30 to 100 min | < 2.5 µM | 2.5 to 6.1 µM | O=C(O)COC(=O)/C=C/C(=O)OC1CCCCCCC1 [Example 1, (E)-2-((4-(cyclooctyloxy)-4-oxobut-2-enoyl)oxy)acetic acid] | ++ (++ means 100-149) | ++++ (++++ means 200-250%) | – | – | – | – | – | – | – | – | – | – | – |
| 20 to 100 µM | 2.1 to 6 µM | ++ (++ means 200-277) | 5 to 10 min | ++++ (++++ means <50) | 30 to 100 min | 6.2 to 9.2 µM | 9.3 to 14.3 µM | O=C(O)COC(=O)/C=C/C(=O)OC1CCCCC1 [Example 2, (E)-2-((4-(cyclohexyloxy)-4-oxobut-2-enoyl)oxy)acetic acid] | + (+ means >17.1-99) | ++++ (++++ means 200-250%) | – | – | – | – | – | – | – | – | – | – | – |
| 20 to 100 µM | < 2 µM | + (+ means >277) | < 5 min | +++ (+++ means 50-149) | 5 to 29 min | < 2.5 µM | < 2.5 µM | O=C(O)CCOC(=O)/C=C/C(=O)OC1CCCCCCC1 [Example 3, (E)-3-((4-(Cyclooctyloxy)-4-oxobut-2-enoyl)oxy)propanoic acid] | ++ (++ means 100-149) | ++++ (++++ means 200-250%) | – | – | – | – | – | – | – | – | – | – | – |
| 6 to 20 µM | 2.1 to 6 µM | + (+ means >277) | < 5 min | +++ (+++ means 50-149) | 5 to 29 min | < 2.5 µM | 2.5 to 6.1 µM | O=C(O)CCOC(=O)/C=C/C(=O)OC1CCCCC1 [Example 4, (E)-3-((4-(cyclohexyloxy)-4-oxobut-2-enoyl)oxy)propanoic acid] | + (+ means >17.1-99) | +++ (+++ means 150-199%) | – | – | – | – | – | – | – | – | – | – | IC50 (IL-6; THP-1, from repeated experiments, Table 1): 2.5 to 6.1 µM |
| – | – | – | – | – | – | – | – | O=C(O)/C=C/C(=O)OC1(c2ccc(C(F)(F)F)cc2)CCC1 [Intermediate 3, (E)-4-oxo-4-(1-(4-(trifluoromethyl)phenyl)cyclobutoxy)but-2-enoic acid] | – | – | < 23 µM | +++ (+++ means >114-150%) | < 23 µM | +++ (+++ means >114-150%) | +++ (+++ means >15-30) | 30 to 100 min | ++++ (++++ means 5-15) | > 100 min | < 6 µM | – | IC50 (IL-6; differentiated THP-1 cells, Table 2, compounds of formula (II)): < 6 µM |
| – | – | – | – | – | – | – | – | O=C(O)/C=C/C(=O)OC1(c2cccc(C(F)(F)F)c2)CCC1 [Intermediate 10, (E)-4-oxo-4-(1-(3-(trifluoromethyl)phenyl)cyclobutoxy)but-2-enoic acid] | – | – | < 23 µM | +++ (+++ means >114-150%) | < 23 µM | +++ (+++ means >114-150%) | ++ (++ means >30-110) | 30 to 100 min | ++ (++ means >30-110) | 5 to 29 min | 6 to 30 µM | 6 to 30 µM | – |
| – | – | – | – | – | – | – | – | O=C(O)/C=C/C(=O)OC1(c2ccc(Br)cc2)CCC1 [Intermediate 12, (E)-4-(1-(4-bromophenyl)cyclobutoxy)-4-oxobut-2-enoic acid] | – | – | < 23 µM | ++ (++ means >87-114%) | < 23 µM | ++ (++ means >87-114%) | +++ (+++ means >15-30) | 30 to 100 min | +++ (+++ means >15-30) | 30 to 100 min | 6 to 30 µM | 6 to 30 µM | – |
| – | – | – | – | – | – | – | – | O=C(O)/C=C/C(=O)OC1(c2cc(Cl)cc(Cl)c2)CCC1 [Intermediate 14, (E)-4-(1-(3,5-dichlorophenyl)cyclobutoxy)-4-oxobut-2-enoic acid] | – | – | < 23 µM | ++++ (++++ means >150%) | < 23 µM | ++++ (++++ means >150%) | ++ (++ means >30-110) | 5 to 29 min | ++++ (++++ means 5-15) | > 100 min | 6 to 30 µM | < 6 µM | – |
| – | – | – | – | – | – | – | – | O=C(O)/C=C/C(=O)OC1(c2ccc(C(F)(F)F)c(F)c2)CCC1 [Intermediate 16, (E)-4-(1-(3-fluoro-4-(trifluoromethyl)phenyl)cyclobutoxy)-4-oxobut-2-enoic acid] | – | – | < 23 µM | +++ (+++ means >114-150%) | < 23 µM | ++++ (++++ means >150%) | +++ (+++ means >15-30) | 30 to 100 min | +++ (+++ means >15-30) | > 100 min | < 6 µM | < 6 µM | – |
| – | – | – | – | – | – | – | – | C[C@H](OC(=O)/C=C/C(=O)O)c1ccc(C(F)(F)F)cc1 [Intermediate 19, (S,E)-4-oxo-4-(1-(4-(trifluoromethyl)phenyl)ethoxy)but-2-enoic acid] | – | – | < 23 µM | +++ (+++ means >114-150%) | < 23 µM | ++++ (++++ means >150%) | ++ (++ means >30-110) | 5 to 29 min | ++++ (++++ means 5-15) | > 100 min | 6 to 30 µM | 6 to 30 µM | – |
| – | – | – | – | – | – | – | – | C[C@@H](OC(=O)/C=C/C(=O)O)c1ccc(C(F)(F)F)cc1 [Intermediate 20, (R,E)-4-oxo-4-(1-(4-(trifluoromethyl)phenyl)ethoxy)but-2-enoic acid] | – | – | 23 to 48.4 µM | + (+ means >50-<87%) | < 23 µM | +++ (+++ means >114-150%) | +++ (+++ means >15-30) | 30 to 100 min | ++++ (++++ means 5-15) | > 100 min | 6 to 30 µM | 6 to 30 µM | – |
| – | – | – | – | – | – | – | – | O=C(O)/C=C/C(=O)OC1(c2cc(Cl)cc(OC(F)(F)F)c2)CCC1 [Intermediate 41, (E)-4-(1-(3-chloro-5-(trifluoromethoxy)phenyl)cyclobutoxy)-4-oxobut-2-enoic acid] | – | – | – | – | – | – | ++ (++ means >30-110) | 30 to 100 min | ++++ (++++ means 5-15) | > 100 min | 6 to 30 µM | 6 to 30 µM | – |

| Compound | EC50 (NRF2; +GSH, Table 3) | EC50 (NRF2; −GSH, Table 3) | CIint (hepatocytes [1]; Table 5) | half-life at 10 μM ([2]; Table 5, read-out: T½) | CIint (hepatocytes [3]; Table 5) | half-life at 10 μM ([4]; Table 5, read-out: T½) | IC50 (IL-6; [7]) | IC50 (IL-1β; LPS then Nigericin, Table 1) | NRF2 activation Emax (NRF2; [5]) | NRF2 activation Emax (NRF2; [6]) | EC50 (NRF2; [8]) | NRF2 activation Emax (NRF2; [8]) | EC50 (NRF2; [9]) | NRF2 activation Emax (NRF2; [9]) | CIint (hepatocytes [1]; Table 6) | half-life at 10 μM ([2]; Table 6, read-out: T½) | CIint (hepatocytes [3]; Table 6) | half-life at 10 μM ([4]; Table 6, read-out: T½) | IC50 (IL-1β; [10]) | IC50 (IL-6; [11]) | other results |
| --- | --- | --- | --- | --- | --- | --- | --- | --- | --- | --- | --- | --- | --- | --- | --- | --- | --- | --- | --- | --- | --- |
| O=C(O)COC(=O)/C=C/C(=O)OC1(c2ccc(C(F)(F)F)cc2)CCC1 [Example 15, (E)-2-((4-oxo-4-(1-(4-(trifluoromethyl)phenyl)cyclobutoxy)but-2-enoyl)oxy) acetic acid] | > 100 µM | 2.1 to 6 µM | + (+ means >277) | < 5 min | +++ (+++ means 50-149) | 5 to 29 min | 2.5 to 6.1 µM | < 2.5 µM | + (+ means >17.1-99) | +++ (+++ means 150-199%) | – | – | – | – | – | – | – | – | – | – | – |
